Reference: patent US7282503B2 (priority 2002, dated 2007)
Like-named read-outs stand apart in the source and are kept apart here.

How the values were obtained:
Plasmopara viticola = test: Activity against peronospora of vines caused by Plasmopara viticola (protective spray, potted vines); assay type: in vivo, Plasmopara viticola on vines cultivar Müller-Thurgau; conditions: individual active compound, control 88% infection
Experimental: The active compounds, separately or together, were prepared as a stock solution with 0.25% by weight of active compound in acetone or DMSO. 1% by weight of the emulsifier Uniperol® EL (wetting agent having emulsifying and dispersing action based on ethoxylated alkylphenols) was added to this solution, and the solution was diluted with water to the desired concentration.
Evaluation is carried out by determining the infected leaf areas as a percentage. These percentages are converted into efficacies. The efficacy (W) is calculated as follows using Abbot's formula: W=(1−α/β)·100 α corresponds to the fungal infection of the treated plants in % and β corresponds to the fungal infection of the untreated (control) plants in % An efficacy of 0 means that the infection level of the treated plants corresponds to that of the untreated control plants; an efficacy of 100 means that the treated plants were not infected. The expected efficacies of the mixtures of the active compounds are determined using Colby's formula [R. S. Colby, Weeds 15, 20-22 (1967)] and compared with the observed efficacies. Colby's formula: E=x+y−x·y/100 […]
E expected efficacy, expressed as a % of the untreated control, when using the mixture of the active compounds A and B at the concentrations a and b x efficacy, expressed as a % of the untreated control, when using active compound A at a concentration a y efficacy, expressed as a % of the untreated control, when using active compound B at a concentration b Leaves of potted vines of the cultivar “Müller-Thurgau” were sprayed to runoff point with an aqueous suspension having the concentration of active compounds stated below. The next day, the undersides of the leaves were inoculated with an aqueous zoospore suspension of Plasmopara viticola. The vines were then initially placed in a water-vapor-saturated chamber at 24° C. for 48 hours and then in a greenhouse at 20-30° C. for 5 days. After this period of time, the plants were again placed in a moist chamber for 16 hours to promote sporangiophore eruption. The extent to which the infection had developed on the undersides of the leaves was then determined visually.

Phytophthora infestans = assay type: in vivo; conditions: individual active compound, control 90% infection

Structure (SMILES)	Efficacy in % of the untreated control (Plasmopara viticola; 3.75 ppm in spray liquor) [%]	Efficacy in % of the untreated control (Plasmopara viticola; 7.5 ppm in spray liquor) [%]	Efficacy in % of the untreated control (Phytophthora infestans; 3.75 ppm in spray liquid) [%]	Efficacy in % of the untreated control (Phytophthora infestans; 7.5 ppm in spray liquid) [%]	Efficacy in % of the untreated control (Phytophthora infestans; 15 ppm in spray liquid) [%]	Efficacy in % of the untreated control (Phytophthora infestans; 30 ppm in spray liquid) [%]	Efficacy in % of the untreated control (Plasmopara viticola; 3 ppm in spray liquor) [%]	Efficacy in % of the untreated control (Plasmopara viticola; 6 ppm in spray liquor) [%]	Efficacy in % of the untreated control (Phytophthora infestans; 0.75 ppm in spray liquid) [%]	Efficacy in % of the untreated control (Phytophthora infestans; 1.5 ppm in spray liquid) [%]	Efficacy in % of the untreated control (Phytophthora infestans; 3 ppm in spray liquid) [%]	Efficacy in % of the untreated control (Phytophthora infestans; 6 ppm in spray liquid) [%]
CC1CCN(c2c(-c3c(F)cc(F)cc3F)c(Cl)nc3ncnn23)CC1 [I, 5-chloro-7-(4-methyl-pipiridin-1-yl)-6-(2,4,6-trifluorophenyl)-[1,2,4]triazolo[1,5-a]pyrimidine]	9	32	0	0	0	33	–	–	–	–	–	–
Cc1ccc(-c2c(Cl)nc(C#N)n2S(=O)(=O)N(C)C)cc1 [IIa, cyazofamid]	–	–	–	–	–	–	72	83	56	67	78	89
